Results taken from patent publication US20190185479A1, “BICYCLIC NITROGENATED HETEROCYCLIC COMPOUND” (MITSUBISHI TANABE PHARMA CORPORATION, priority 2016, published 2019).
Where a name gives a salt, the structure may show the parent alone.

Molecular target: T1, Human PDE7B (hPDE7B) (Homo sapiens, UniProt Q9NP56)
T1 construct: made in house; host or cells: COS-7 cells
Assay: Measurement of PDE7 inhibitory activity (Experimental Example 1; residual cAMP, LANCE Ultra cAMP TR-FRET)
Type: biochemical
Settings: for IC50: cAMP 3 nmol/L, room temperature 60 minutes; for inhibition at 1 µM: compound at 1 μmol/L
Procedure: Human PDE7B (hPDE7B) was isolated from COS-7 cells transfected with plasmids encoding hPDE7B according to the method described in a reference, Biochemical and Biophysical Research Communication, 271, p. 575-583 (2000). The resulting enzyme solution was used in the PDE assay.
PDE7 inhibitory assay was carried out by reacting the mixture of a compound, hPDE7B, and cAMP, and measuring the residual cAMP by a detection method using LANCE (registered trademark) Ultra cAMP Detection Kit (ParkinElmer). The compound was dissolved in DMSO, and diluted so that the concentration would become 50 times of the final concentration. The hPDE7B and cAMP were diluted with an assay buffer (50 mmol/L Tris-HCl, 1 mmol/L MgCl2, 0.1% BSA, 0.5 mmol/L DTT, pH7.5) so that the hPDE7B would have an appropriate enzyme activity and the concentration of cAMP would become 6 nmol/L. To a 96 well plate were added the compound (2 μL) (DMSO final concentration: 2%), hPDE7B (48 μL), and cAMP (50 μL) (concentration at the reaction: 3 nmol/L), and the resulting mixture was reacted at room temperature for 60 minutes. The reaction solution (20 μL) was subjected to a TR-FRET method according to the protocol specified by the kit to measure the concentration of the residual cAMP. In the assay, to a tracer solution specified by the kit was added 0.5 mmol/L of 3-isobutyl-1-methylxanthine (IBMX, nonselective PDE inhibitor) in order to stop the PDE enzyme reaction after the completion of reaction until the measurement.
The reaction without a compound was defined as “0% inhibition”, the reaction without hPDE7B was defined as “100% inhibition”, and the inhibition rate of the compound was calculated by the following equation.
Inhibition rate of compound (%)={(Residual cAMP concentration at the addition of compound−Residual cAMP concentration in 0% inhibition)/(Residual cAMP concentration in 100% inhibition−Residual cAMP concentration in 0% inhibition)}×100

T1 sequence (Q9NP56 whole entry): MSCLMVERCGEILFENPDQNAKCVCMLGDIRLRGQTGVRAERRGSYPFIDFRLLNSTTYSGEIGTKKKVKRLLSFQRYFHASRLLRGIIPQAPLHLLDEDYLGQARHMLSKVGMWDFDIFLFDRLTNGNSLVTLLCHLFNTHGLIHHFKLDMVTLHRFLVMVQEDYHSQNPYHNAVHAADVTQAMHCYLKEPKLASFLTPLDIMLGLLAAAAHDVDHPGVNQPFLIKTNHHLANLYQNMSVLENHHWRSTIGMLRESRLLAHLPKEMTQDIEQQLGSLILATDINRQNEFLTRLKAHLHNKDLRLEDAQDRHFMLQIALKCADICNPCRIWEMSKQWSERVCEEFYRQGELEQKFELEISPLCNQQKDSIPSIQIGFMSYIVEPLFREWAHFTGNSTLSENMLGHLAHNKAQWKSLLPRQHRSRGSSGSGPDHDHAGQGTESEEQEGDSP

In the case of `Nc1ncnc2c1nnn2[C@H]1CC[C@@H](C(F)(F)F)CC1` [Example 102], the IC50 is reported as 250 nM.

With `Nc1ncnc2c1nnn2C1CCC1` [Example 35] the IC50 was 200 nM.

Compound `Nc1nccn2c(N3CCCC(C(F)(F)F)C3)nnc12` (single isomer, unassigned) [Example 224] has an IC50 of 170 nM.

`CC1CCCCC1n1nnc2c(N)ncnc21` (single isomer, unassigned) [Example 190, 3-(cis-2-methylcyclohexyl)-3H-[1,2,3]triazolo[4,5-d]pyrimidin-7-amine] gave an IC50 of 220 nM.

With `Nc1nccn2c(N3CCCC(c4ccccc4)C3)nnc12` (stereo not shown) [Example 49] the IC50 was 260 nM.

For `Nc1nccn2c(N3CCCCC3c3ccccc3)nnc12` (stereo not shown) [Example 41], the IC50 was 290 nM.

`CC1CCCCC1n1nnc2c(N)ncnc21` (racemic) [Example 1, 3-(trans-2-methylcyclohexyl)-3H-[1,2,3]triazolo[4,5-d]pyrimidin-7-amine] gave an IC50 of 80 nM.

`C[C@@H](c1ccc(F)cc1)n1nnc2c(N)ncnc21` [Example 16] showed an IC50 of 350 nM.

With `CC1CCC(C)N(c2nnc3c(N)ncc(C#N)n23)C1` (single isomer, unassigned) [Example 235, 8-amino-3-(2,5-dimethylpiperidin-1-yl) [1,2,4]triazolo[4,3-a]pyrazine-5-carbonitrile] the IC50 was 16 nM.

`CCC1CCCCN1c1nnc2c(N)nccn12` (racemic) [Example 23, 3-(2-ethylpiperidin-1-yl) [1,2,4]triazolo[4,3-a]pyrazin-8-amine] showed an IC50 of 40 nM.

`Nc1ncnc2c1nnn2C1CCCCC1` [Example 85, 3-cyclohexyl-3H-[1,2,3]triazolo[4,5-d]pyrimidin-7-amine hydrochloride] was tested, and the IC50 was 40 nM.

In the case of `CC1CCCC(n2nnc3c(N)ncnc32)C1` (racemic) [Example 94, 3-(trans-3-methylcyclohexyl)-3H-[1,2,3]triazolo[4,5-d]pyrimidin-7-amine], the IC50 is reported as 60 nM.

`Nc1ncnc2c1nnn2-c1cccc(OCc2ccccc2)c1` [Example 139, 3-[3-(benzyloxy)phenyl]-3H-[1,2,3]triazolo[4,5-d]pyrimidin-7-amine] showed an IC50 of 90 nM.

Compound `CC1CCN(c2nnc3c(N)nccn23)CC1C` (single isomer, unassigned) [Example 229, 3-(3,4-dimethylpiperidin-1-yl) [1,2,4]triazolo[4,3-a]pyrazin-8-amine] has an IC50 of 310 nM.

With `Nc1ncnc2c1nnn2[C@H]1CCCN(Cc2ccccc2)C1` [Example 138, 3-[(3S)-1-benzylpiperidin-3-yl]-3H-[1,2,3]triazolo[4,5-d]pyrimidin-7-amine] the IC50 was 340 nM.

For `CC1CCCN(c2nnc3c(N)nccn23)C1C` (single isomer, unassigned) [Example 56, 3-(2,3-dimethylpiperidin-1-yl) [1,2,4]triazolo[4,3-a]pyrazin-8-amine], the IC50 was 190 nM.

`COC1CCCCC1n1nnc2c(N)ncnc21` (stereo not shown) [Example 116] showed an IC50 of 380 nM.

In the case of `Nc1nccn2c(C3CCC4CC4C3)nnc12` (stereo not shown) [Example 158, 3-(bicyclo[4.1.0]hept-3-yl) [1,2,4]triazolo[4,3-a]pyrazin-8-amine], the IC50 is reported as 70 nM.

`Nc1ncnc2c1nnn2[C@@H]1CCCC(F)(F)C1` [Example 88] showed an IC50 of 840 nM.

With `CC1CCCCC1n1nnc2c(N)ncnc21` (single isomer, unassigned) [Example 193, 3-(trans-2-methylcyclohexyl)-3H-[1,2,3]triazolo[4,5-d]pyrimidin-7-amine] the IC50 was 430 nM.

Compound `CC1CCCC(c2nnc3c(N)ncnn23)C1` (single isomer, unassigned) [Example 71, 3-(cis-3-methylcyclohexyl) [1,2,4]triazolo[3,4-f][1,2,4]triazin-8-amine] has an IC50 of 4 nM.

`CC(C)[C@@H]1CC[C@@H](C)[C@@H](n2nnc3c(N)ncnc32)C1` [Example 132, 3-[(1S,2R,5R)-2-methyl-5-(propan-2-yl)cyclohexyl]-3H-[1,2,3]triazolo[4,5-d]pyrimidin-7-amine] gave an IC50 of 670 nM.

`Nc1nccn2c(C3CCCC(C(F)(F)F)C3)nnc12` (single isomer, unassigned) [Example 211, 3-[cis-3-(trifluoromethyl)cyclohexyl][1,2,4]triazolo[4,3-a]pyrazin-8-amine] was tested, and the IC50 was greater than 1000 nM and the inhibition at 1 µM was 20%.

In the case of `CC1CCC(C)N(c2nnc3c(N)nccn23)C1` (single isomer, unassigned) [Example 233, 3-(2,5-dimethylpiperidin-1-yl) [1,2,4]triazolo[4,3-a]pyrazin-8-amine], the IC50 is reported as 100 nM.

Work on `Nc1nccn2c(C3CCCC4(CC4)C3)nnc12` (racemic) [Example 145, 3-(spiro[2,5]oct-5-yl) [1,2,4]triazolo[4,3-a]pyrazin-8-amine] yielded an IC50 of 30 nM.

Work on `Nc1nccn2c(C3CC(C(F)(F)F)CC(F)(F)C3)nnc12` (stereo not shown) [Example 157] yielded an IC50 of 920 nM.

Compound `CC1CC(c2nnc3c(N)nccn23)C1` (stereo not shown) [Example 133, 3-(3-methylcyclobutyl)-[1,2,4]triazolo[4,3-a]pyrazin-8-amine] has an IC50 of 160 nM.

`Nc1nccn2c(C3CCC(F)(F)CC3)nnc12` [Example 150] was tested, and the IC50 was 130 nM.

In the case of `Nc1nccn2c(C3CCCCO3)nnc12` (stereo not shown) [Example 168], the IC50 is reported as 440 nM.

`CC1CCC(C)(C)CN1c1nnc2c(N)nccn12` (racemic) [Example 65, 3-(2,5,5-trimethylpiperidin-1-yl) [1,2,4]triazolo[4,3-a]pyrazin-8-amine] was tested, and the IC50 was less than 10 nM.

`Nc1ncnc2c1nnn2[C@H]1CCC[C@H](C(F)(F)F)C1` (relative stereo) [Example 86, 3-[trans-3-(trifluoromethyl)cyclohexyl]-3H-[1,2,3]triazolo[4,5-d]pyrimidin-7-amine] showed an IC50 of 360 nM.

For `Nc1nccn2c(N3CCCCC3Cc3ccccc3)nnc12` (stereo not shown) [Example 40], the IC50 was 730 nM.

For `CCC1CCCN(c2nnc3c(N)nccn23)C1` (stereo not shown) [Example 25], the IC50 was 190 nM.

`CC1CC(C)CN(c2nnc3c(N)nccn23)C1` (single isomer, unassigned) [Example 227, 3-[trans-3,5-dimethylpiperidin-1-yl][1,2,4]triazolo[4,3-a]pyrazin-8-amine] showed an IC50 of 190 nM.

`Nc1nccn2c(N3C4CCC3CC4)nnc12` [Example 66] gave an IC50 of 360 nM.

With `Nc1ncnc2c1nnn2C1CCCCC1F` (racemic) [Example 97, 3-(cis-2-fluorocyclohexyl)-3H-[1,2,3]triazolo[4,5-d]pyrimidin-7-amine] the IC50 was 50 nM.

Compound `CN1CCCCC1c1nnc2c(N)nccn12` (racemic) [Example 249, 3-(1-methylpiperidin-2-yl)-[1,2,4]triazolo[4,3-a]pyrazin-8-amine] has an IC50 of 740 nM.

Work on `CC1CCCC(n2nnc3c(N)ncnc32)C1` (single isomer, unassigned) [Example 198, 3-(trans-3-methylcyclohexyl)-3H-[1,2,3]triazolo[4,5-d]pyrimidin-7-amine] yielded an IC50 of 70 nM.

`CC(C)[C@H]1CC[C@H](C)[C@H](n2nnc3c(N)ncnc32)C1` [Example 134, 3-[(1R,2S,5S)-2-methyl-5-(propan-2-yl)cyclohexyl]-3H-[1,2,3]triazolo[4,5-d]pyrimidin-7-amine] was tested, and the IC50 was 330 nM.

In the case of `CC1CCCCC1c1nnc2c(N)ncnn12` (single isomer, unassigned) [Example 69, 3-(cis-2-methylcyclohexyl) [1,2,4]triazolo[3,4-f][1,2,4]triazin-8-amine], the IC50 is reported as 10 nM.

For `CC1(C)CCCC(c2nnc3c(N)ncnn23)C1` (single isomer, unassigned) [Example 243, 3-(3,3-dimethylcyclohexyl) [1,2,4]triazolo[3,4-f][1,2,4]triazin-8-amine], the IC50 was 120 nM.

For `CCCC1CCCCN1c1nnc2c(N)nccn12` (racemic) [Example 79, 3-(2-propylpiperidin-1-yl)-[1,2,4]triazolo[4,3-a]pyrazin-8-amine], the IC50 was 260 nM.

In the case of `Nc1ncnc2c1nnn2C1CCCC(C(F)F)C1` (stereo not shown) [Example 119], the IC50 is reported as 20 nM.

`CC1CCC(F)(F)CC1c1nnc2c(N)nccn12` (single isomer, unassigned) [Example 176, 3-(cis-5,5-difluoro-2-methylcyclohexyl) [1,2,4]triazolo[4,3-a]pyrazin-8-amine] gave an IC50 greater than 1000 nM and an inhibition at 1 µM of 28%.

Work on `Cc1ccc(F)c(-n2nnc3c(N)ncnc32)c1` [Example 129] yielded an IC50 of 750 nM.

Work on `Nc1nc(C(F)(F)F)nc2c1nnn2C1CCCCC1` [Example 6] yielded an IC50 of 340 nM.

For `CO[C@H]1CCCC[C@H]1n1nnc2c(N)ncnc21` (racemic) [Example 111, 3-[cis-2-methoxycyclohexyl]-3H-[1,2,3]triazolo[4,5-d]pyrimidin-7-amine], the IC50 was 320 nM.

In the case of `Nc1nccn2c(CC3CCCCC3)nnc12` [Example 165], the IC50 is reported as 360 nM.

Compound `CC1CC(c2nnc3c(N)nccn23)CC(F)(F)C1` (racemic) [Example 155, 3-(trans-3,3-difluoro-5-methylcyclohexyl[1,2,4]triazolo[4,3-a]pyrazin-8-amine] has an IC50 of 90 nM.

Work on `Nc1nccn2c(N3CCCC4(CCCC4)C3)nnc12` [Example 45] yielded an IC50 of 210 nM.
